Test results published in patent US20260297060A1, “COMPOUNDS FOR THE DEGRADATION OF MUTANT BRAF” (C4 THERAPEUTICS, INC., priority 2023, published 2026).
Like-named read-outs stand apart in the source and are kept apart here.

Assays:
BRAF V600E = target: T1, BRAF V600E (Homo sapiens, UniProt P15056+Q96SW2, V600E); experiment: BRAF V600E HiBiT Degradation Assay; type: cell-based; settings: for DC50: A375.10 cells, BRAF V600E, 2 hours; for Emax: read-out: HiBiT-Degradation A375.10 BRAF 2 hours Emax, A375.10 cells, BRAF V600E, 2 hours, residual protein remaining
T1 construct: knock-in of the HiBiT tag to the endogenous BRAF V600E locus; host or cells: A375.10 (A375 clonal line, CRISPR HiBiT knock-in at the endogenous BRAF V600E locus)
How it was run: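 Endogenous HiBiT knock-in on BRAF V600E in A375 cells (clone A375.10); 11-point half-log series, top 10 μM, 2, 6 or 24 h at 37° C. Lytic HiBiT luminescence, background-subtracted, normalized to DMSO; 4-parameter fit gives DC50, Emax (residual protein) and IP (inflection point).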

[1] = Example 8 pharmacokinetics assay for PKPD study (plasma, tumor, liver); type: in vivo, BALB/c nude mice; settings: mouse, po, 35 mg/kg, p.o., single dose
Experimental: For the PK and PD study, agents were administered to BALB/c nude mice bearing A375 human melanoma xenografts tumors. encorafenib, Compound 8, Compound 26, Compound 38, and Compound 39 were dosed p.o. once on day 1. Encorafenib was dosed at 35 mg/kg, Compound 8, Compound 26, Compound 38, and Compound 39 were dosed at 10 mg/kg. This study was non-GLP.
The plasma samples were collected at predetermined time points for PK analysis. For non-termination plasma collection, blood samples were collected into the 1.5 mL Eppendorf tubes containing 3 μL of 0.5 M EDTA-K2. For termination plasma collection, the mice were euthanized at predetermined time points post the treatment and the blood samples were collected into the 1.5 mL Eppendorf tubes containing 15 μL of 0.5 M EDTA-K2. And then the anticoagulant blood samples were centrifuged at 2,500 g at 4° C. for 15 minutes. The plasma samples were separated into 2 aliquots. The 1st was used for PK analysis, and the 2nd served as backup. The samples were stored at −80° C. before bioanalysis.
The tumor samples were collected at predetermined time points for PK and WB analysis. The tumor was dissected out and split into 3 parts. The 1st part was used for PK analysis, the 2nd part was used for WB analysis and the last one served as backup for study. The samples were transferred into pre-labeled tubes and quickly froze in liquid nitrogen within 2 minutes after dissection. The samples were stored at −80° C. before bioanalysis.
Liver samples were collected at predetermined time points for PK analysis. The left lobe of the liver was dissected out and split into 2 parts. The 1st part was used for PK analysis and the 2nd part served as the backup for the study. The samples were transferred into pre-labeled tubes and quickly froze in liquid nitrogen within 2 minutes after dissection. The samples were stored at −80° C. before bioanalysis.
The harvested plasma and liver samples were processed for pharmacokinetics analysis by LC-MS/MS with a concentration range of 0.200~200 ng/mL for encorafenib in plasma and liver homogenate, and 0.100-100 ng/ml in tumor homogenate, 1.00-1000 ng/mL for Compound 8 in plasma and 0.500~500 ng/ml in tumor and liver homogenate, 50.0~50,000 ng/mL for Compound 26 and Compound 38 in plasma, 5.0~5000 ng/ml in liver and 2.00~2000 ng/ml in tumor homogenate, 1.00-1000 ng/mL for Compound 39 in plasma and 0.500~500 ng/mL in liver and tumor homogenate.

[2] = read-out: HiBiT-Degradation A375.10 BRAF 2 hours DC50
[3] = read-out: HiBiT-Degradation A375.10 BRAF 2 hours IP, inflection point
[4] = liver, read-out: Concentration in Liver (mean ± SEM)
[5] = plasma, read-out: Concentration in Plasma (mean ± SEM)
[6] = tumor, read-out: Concentration in Tumor (mean ± SEM)

T1 sequence (P15056 whole entry V600E): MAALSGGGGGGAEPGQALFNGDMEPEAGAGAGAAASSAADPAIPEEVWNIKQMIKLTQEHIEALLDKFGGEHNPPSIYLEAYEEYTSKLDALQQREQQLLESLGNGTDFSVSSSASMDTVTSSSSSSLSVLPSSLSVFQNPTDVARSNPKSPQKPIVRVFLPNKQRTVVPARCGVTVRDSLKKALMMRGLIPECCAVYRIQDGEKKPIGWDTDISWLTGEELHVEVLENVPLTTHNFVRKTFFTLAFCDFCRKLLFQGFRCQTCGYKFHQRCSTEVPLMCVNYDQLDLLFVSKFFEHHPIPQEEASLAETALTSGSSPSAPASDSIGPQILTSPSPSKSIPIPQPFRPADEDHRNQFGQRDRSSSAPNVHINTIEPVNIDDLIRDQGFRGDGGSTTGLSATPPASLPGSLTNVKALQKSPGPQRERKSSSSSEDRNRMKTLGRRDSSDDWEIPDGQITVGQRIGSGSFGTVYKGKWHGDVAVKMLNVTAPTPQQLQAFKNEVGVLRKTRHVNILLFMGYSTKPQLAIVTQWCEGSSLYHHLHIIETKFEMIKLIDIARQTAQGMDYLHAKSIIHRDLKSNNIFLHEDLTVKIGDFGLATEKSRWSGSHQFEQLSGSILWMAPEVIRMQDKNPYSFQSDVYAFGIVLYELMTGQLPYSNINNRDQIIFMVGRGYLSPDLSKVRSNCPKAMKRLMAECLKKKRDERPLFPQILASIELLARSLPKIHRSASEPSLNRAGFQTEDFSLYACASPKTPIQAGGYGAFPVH
T1 sequence (Q96SW2 whole entry): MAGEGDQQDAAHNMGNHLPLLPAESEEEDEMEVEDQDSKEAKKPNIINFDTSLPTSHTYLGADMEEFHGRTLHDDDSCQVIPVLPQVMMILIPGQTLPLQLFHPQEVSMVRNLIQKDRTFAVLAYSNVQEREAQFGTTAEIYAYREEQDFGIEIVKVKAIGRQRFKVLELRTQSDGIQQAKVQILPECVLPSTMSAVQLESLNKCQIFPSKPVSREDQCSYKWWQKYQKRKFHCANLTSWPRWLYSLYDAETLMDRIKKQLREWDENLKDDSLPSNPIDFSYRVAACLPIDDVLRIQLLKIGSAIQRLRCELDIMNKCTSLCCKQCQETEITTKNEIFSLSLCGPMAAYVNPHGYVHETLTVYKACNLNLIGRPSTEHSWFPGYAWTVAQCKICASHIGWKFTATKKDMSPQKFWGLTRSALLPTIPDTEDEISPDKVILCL
T1 sequence (Q16531 whole entry partner): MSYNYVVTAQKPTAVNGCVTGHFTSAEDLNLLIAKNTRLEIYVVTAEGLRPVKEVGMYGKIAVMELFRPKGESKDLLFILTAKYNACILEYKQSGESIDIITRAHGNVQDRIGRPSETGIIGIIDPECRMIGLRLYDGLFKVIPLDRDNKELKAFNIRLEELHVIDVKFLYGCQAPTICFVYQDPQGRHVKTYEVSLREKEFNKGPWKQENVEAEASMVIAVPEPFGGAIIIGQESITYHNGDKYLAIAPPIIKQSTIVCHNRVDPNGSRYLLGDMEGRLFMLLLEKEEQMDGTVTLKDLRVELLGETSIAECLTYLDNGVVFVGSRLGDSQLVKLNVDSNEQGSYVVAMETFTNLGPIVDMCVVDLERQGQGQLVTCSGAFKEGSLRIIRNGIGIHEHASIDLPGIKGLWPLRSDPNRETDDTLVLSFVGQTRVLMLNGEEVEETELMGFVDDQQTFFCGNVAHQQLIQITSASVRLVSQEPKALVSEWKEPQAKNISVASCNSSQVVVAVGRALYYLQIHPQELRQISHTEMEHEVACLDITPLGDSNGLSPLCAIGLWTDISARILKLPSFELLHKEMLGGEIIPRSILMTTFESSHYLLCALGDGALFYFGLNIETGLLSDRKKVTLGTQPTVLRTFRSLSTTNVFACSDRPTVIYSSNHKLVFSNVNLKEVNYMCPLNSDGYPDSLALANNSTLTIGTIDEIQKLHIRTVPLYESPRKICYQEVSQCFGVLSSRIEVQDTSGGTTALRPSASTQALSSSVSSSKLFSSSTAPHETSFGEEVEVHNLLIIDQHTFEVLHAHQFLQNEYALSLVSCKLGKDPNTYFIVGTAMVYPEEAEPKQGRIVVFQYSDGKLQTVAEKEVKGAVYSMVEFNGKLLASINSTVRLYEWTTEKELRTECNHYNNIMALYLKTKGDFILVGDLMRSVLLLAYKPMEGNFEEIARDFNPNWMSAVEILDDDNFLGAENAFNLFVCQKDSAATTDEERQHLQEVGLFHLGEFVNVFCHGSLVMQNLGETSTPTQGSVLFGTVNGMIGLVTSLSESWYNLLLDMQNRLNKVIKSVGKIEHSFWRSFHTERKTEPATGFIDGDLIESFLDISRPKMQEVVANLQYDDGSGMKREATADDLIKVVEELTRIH

DC50 (BRAF V600E; [2]) [nM]	Emax (BRAF V600E) [%]	DC50 (BRAF V600E; [3]) [nM]	SMILES	concentration at 6 h [1, 4] [ng/g]	concentration at 12 h [1, 4] [ng/g]	concentration at 1 h [1, 5] [ng/mL]	concentration at 6 h [1, 5] [ng/mL]	concentration at 12 h [1, 5] [ng/mL]	concentration at 24 h ([1]; plasma, 24 h, read-out: Concentration in Plasma (mean ± SEM)) [ng/mL]	concentration at 1 h [1, 6] [ng/g]	concentration at 6 h [1, 6] [ng/g]	concentration at 12 h [1, 6] [ng/g]
< 1000	< 50	< 1000	CO[C@@H]1CCN(S(=O)(=O)Nc2ccc(F)c(Oc3ccc4ncn(C5CC6(CCN(C7CC8(C7)CN(c7cc9c(cc7F)c(N7CCC(=O)NC7=O)nn9C)C8)CC6)C5)c(=O)c4c3)c2C#N)C1 (stereo partly drawn) [Compound 269, (3R)-N-[2-cyano-3-[3-[7-[2-[3-(2,4-dioxohexahydropyrimidin-1-yl)-5-fluoro-1-methyl-indazol-6-yl]-2-azaspiro[3.3]heptan-6-yl]-7-azaspiro[3.5]nonan-2-yl]-4-oxo-quinazolin-6-yl]oxy-4-fluoro-phenyl]-3-methoxy-pyrrolidine-1-sulfonamide]									
< 1000	< 50	< 1000	COC1CN(S(=O)(=O)Nc2ccc(F)c(Oc3ccc4ncn(C5CC6(CCN(C7CC8(C7)CN(c7cc9c(cc7F)c(N7CCC(=O)NC7=O)nn9C)C8)CC6)C5)c(=O)c4c3)c2C#N)C1 (stereo not drawn) [Compound 280, N-[2-cyano-3-[3-[7-[2-[3-(2,4-dioxohexahydropyrimidin-1-yl)-5-fluoro-1-methyl-indazol-6-yl]-2-azaspiro[3.3]heptan-6-yl]-7-azaspiro[3.5]nonan-2-yl]-4-oxo-quinazolin-6-yl]oxy-4-fluoro-phenyl]-3-methoxy-azetidine-1-sulfonamide]									
			COC(=O)N[C@@H](C)CNc1nccc(-c2cn(C(C)C)nc2-c2cc(Cl)cc(NS(C)(=O)=O)c2F)n1 [Encorafenib, encorafenib, reference compound]	362 ± 231	16 ± 5.3	5510 ± 1700	585 ± 446	11.3 ± 8.5	0.368 ± 0.082	1350 ± 391	139 ± 76.2	16.1 ± 10.9
